# Values joined by “and” are separate entries in the source; they are usually repeats but may differ in a detail not shown here. Identical values can stand only once.
# Species on record: Rattus norvegicus
# Assay: DrugMatrix - Regimen: Daily Repeat
# Format: toxicity, organism-based, Sprague-Dawley
# Parameters: regimen Daily Repeat, gender Male, age 6-8 weeks
# Conditions: in vivo, ip, route intraperitoneal, vehicle 100 % SALINE; for ABSOLUTE BASOPHIL / ABSOLUTE EOSINOPHIL / ABSOLUTE LYMPHOCYTE / ABSOLUTE MONOCYTE / BASOPHIL / EOSINOPHIL / ERYTHROCYTE COUNT / HEMATOCRIT / HEMOGLOBIN / LEUKOCYTE COUNT / LYMPHOCYTE / MEAN CORPUSCULAR HEMOGLOBIN / MEAN CORPUSCULAR HEMOGLOBIN CONCENTRATION / MEAN CORPUSCULAR VOLUME / MONOCYTE / NEUTROPHIL / PLATELET COUNT: tissue Blood; for ALANINE AMINOTRANSFERASE / ALBUMIN / ALKALINE PHOSPHATASE / ASPARTATE AMINOTRANSFERASE / BLOOD UREA NITROGEN / CARBON DIOXIDE / CHOLESTEROL / CREATININE / GLUCOSE / LACTATE DEHYDROGENASE / LIPASE / PHOSPHORUS / POTASSIUM / SODIUM / TOTAL BILIRUBIN / URIC ACID / CHLORIDE: tissue Plasma
# [1] = 0 mg/kg, 120 h, dose level Control, time 5 day
# [2] = 0 mg/kg, […], dose level Control, time 14 day
# [3] = 0 mg/kg, […], dose level Control, time 28 day
# [4] = 0.5 mg/kg, 120 h, dose level High, time 5 day
# [5] = 0.5 mg/kg, […], dose level High, time 14 day
# [6] = 0.5 mg/kg, […], dose level High, time 28 day
sequence,measurement,setting,value
CISPLATIN,ABSOLUTE BASOPHIL,[1],32 cells/µL
same,ABSOLUTE EOSINOPHIL,[1],110 cells/µL
same,ABSOLUTE LYMPHOCYTE,[1],6630 cells/µL
same,ABSOLUTE MONOCYTE,[1],140 cells/µL
same,BASOPHIL,[1],0.38% and 0.35%
same,EOSINOPHIL,[1],1.28% and 0.62%
same,ERYTHROCYTE COUNT,[1],7.45 x10E6/uL and 7.26 x10E6/uL
same,HEMATOCRIT,[1],45.74% and 47.97%
same,HEMOGLOBIN,[1],14.72 G/DL and 15.38 G/DL
same,LEUKOCYTE COUNT,[1],8.11 x10E3/uL and 8.68 x10E3/uL
same,LYMPHOCYTE,[1],81.3% and 86.77%
same,MEAN CORPUSCULAR HEMOGLOBIN,[1],19.76 pg and 21.18 pg
same,MEAN CORPUSCULAR HEMOGLOBIN CONCENTRATION,[1],32.16 G/DL and 32.05 G/DL
same,MEAN CORPUSCULAR VOLUME,[1],61.38 fL and 66.15 fL
same,MONOCYTE,[1],1.76% and 1.57%
same,NEUTROPHIL,[1],14.9% and 9.53%
same,PLATELET COUNT,[1],1322.4 x10E3/uL and 1786 x10E3/uL
same,ALANINE AMINOTRANSFERASE,[1],25.8 u/L and 20.5 u/L
same,ALBUMIN,[1],3.64 G/DL and 4.35 G/DL
same,ALKALINE PHOSPHATASE,[1],300 u/L
same,ASPARTATE AMINOTRANSFERASE,[1],81.4 u/L and 86.75 u/L
same,BLOOD UREA NITROGEN,[1],14.4 mg/dL and 17 mg/dL
same,CARBON DIOXIDE,[1],29 mmol/L
same,CHOLESTEROL,[1],69.2 mg/dL and 51.25 mg/dL
same,CREATININE,[1],0.56 mg/dL and 0.47 mg/dL
same,GLUCOSE,[1],125.4 mg/dL and 128.75 mg/dL
same,LACTATE DEHYDROGENASE,[1],105.4 u/L and 145 u/L
same,LIPASE,[1],22.4 u/L and 13.25 u/L
same,PHOSPHORUS,[1],11.8 mg/dL
same,POTASSIUM,[1],5.52 MEQ/L and 6.58 MEQ/L
same,SODIUM,[1],147 MEQ/L and 151 MEQ/L
same,TOTAL BILIRUBIN,[1],0.2 mg/dL and 0.33 mg/dL
same,URIC ACID,[1],1.06 mg/dL and 1.95 mg/dL
same,ABSOLUTE BASOPHIL,[2],130 cells/µL
same,ABSOLUTE EOSINOPHIL,[2],140 cells/µL
same,ABSOLUTE LYMPHOCYTE,[2],13500 cells/µL
same,ABSOLUTE MONOCYTE,[2],400 cells/µL
same,HEMATOCRIT,[2],45.98%
same,HEMOGLOBIN,[2],15.17 G/DL
same,MEAN CORPUSCULAR VOLUME,[2],59.4 fL
same,NEUTROPHIL,[2],14.14%
same,ABSOLUTE BASOPHIL,[3],91 cells/µL
same,ABSOLUTE EOSINOPHIL,[3],110 cells/µL
same,ABSOLUTE LYMPHOCYTE,[3],9910 cells/µL
same,ABSOLUTE MONOCYTE,[3],210 cells/µL
same,BASOPHIL,[3],0.77%
same,EOSINOPHIL,[3],0.92%
same,ERYTHROCYTE COUNT,[3],8.21 x10E6/uL
same,HEMATOCRIT,[3],47.53%
same,HEMOGLOBIN,[3],15.65 G/DL
same,LEUKOCYTE COUNT,[3],11.91 x10E3/uL
same,LYMPHOCYTE,[3],83.34%
same,MEAN CORPUSCULAR HEMOGLOBIN,[3],19.07 pg
same,MEAN CORPUSCULAR HEMOGLOBIN CONCENTRATION,[3],32.93 G/DL
same,MEAN CORPUSCULAR VOLUME,[3],57.9 fL
same,MONOCYTE,[3],1.68%
same,NEUTROPHIL,[3],12.97%
same,PLATELET COUNT,[3],1323.8 x10E3/uL
same,ALBUMIN,[2],3.66 G/DL
same,CARBON DIOXIDE,[2],25 mmol/L
same,CHLORIDE,[2],107 MEQ/L
same,SODIUM,[2],149.2 MEQ/L
same,URIC ACID,[2],0.94 mg/dL
same,ALANINE AMINOTRANSFERASE,[3],30 u/L
same,ALBUMIN,[3],3.71 G/DL
same,ALKALINE PHOSPHATASE,[3],186.8 u/L
same,ASPARTATE AMINOTRANSFERASE,[3],78.2 u/L
same,BLOOD UREA NITROGEN,[3],14.2 mg/dL
same,CHOLESTEROL,[3],44.9 mg/dL
same,CREATININE,[3],0.6 mg/dL
same,GLUCOSE,[3],147.2 mg/dL
same,LACTATE DEHYDROGENASE,[3],123.1 u/L
same,LIPASE,[3],9.6 u/L
same,PHOSPHORUS,[3],10.01 mg/dL
same,POTASSIUM,[3],6.57 MEQ/L
same,SODIUM,[3],149.5 MEQ/L
same,TOTAL BILIRUBIN,[3],0.21 mg/dL
same,URIC ACID,[3],1.26 mg/dL
same,ABSOLUTE BASOPHIL,[4],26 cells/µL
same,ABSOLUTE EOSINOPHIL,[4],92 cells/µL
same,ABSOLUTE LYMPHOCYTE,[4],5270 cells/µL
same,ABSOLUTE MONOCYTE,[4],150 cells/µL
same,BASOPHIL,[4],0.36% and 0.28%
same,EOSINOPHIL,[4],1.46% and 0.85%
same,ERYTHROCYTE COUNT,[4],7.52 x10E6/uL and 7.82 x10E6/uL
same,HEMATOCRIT,[4],46.92% and 52.02%
same,HEMOGLOBIN,[4],16.7 G/DL
same,LEUKOCYTE COUNT,[4],6.24 x10E3/uL and 6.92 x10E3/uL
same,LYMPHOCYTE,[4],84.62% and 88.4%
same,MEAN CORPUSCULAR HEMOGLOBIN,[4],20.1 pg and 21.33 pg
same,MEAN CORPUSCULAR HEMOGLOBIN CONCENTRATION,[4],32.2 G/DL and 32.05 G/DL
same,MEAN CORPUSCULAR VOLUME,[4],66.5 fL
same,MONOCYTE,[4],2.36% and 1.6%
same,NEUTROPHIL,[4],10.88% and 7.72%
same,PLATELET COUNT,[4],1593.2 x10E3/uL and 1552.25 x10E3/uL
same,ALANINE AMINOTRANSFERASE,[4],25 u/L and 19.25 u/L
same,ALBUMIN,[4],3.66 G/DL and 4.4 G/DL
same,ALKALINE PHOSPHATASE,[4],215.2 u/L and 294.25 u/L
same,ASPARTATE AMINOTRANSFERASE,[4],75.2 u/L and 87.5 u/L
same,BLOOD UREA NITROGEN,[4],13.8 mg/dL and 15 mg/dL
same,CARBON DIOXIDE,[4],25.25 mmol/L
same,CHLORIDE,[4],106.6 MEQ/L and 107.25 MEQ/L
same,CHOLESTEROL,[4],54.4 mg/dL and 68 mg/dL
same,CREATININE,[4],0.54 mg/dL and 0.5 mg/dL
same,GLUCOSE,[4],136.8 mg/dL and 138.75 mg/dL
same,LIPASE,[4],26.8 u/L and 10 u/L
same,POTASSIUM,[4],5.54 MEQ/L and 5.67 MEQ/L
same,SODIUM,[4],146.2 MEQ/L and 152.25 MEQ/L
same,TOTAL BILIRUBIN,[4],0.18 mg/dL and 0.43 mg/dL
same,URIC ACID,[4],1.34 mg/dL and 2.38 mg/dL
same,ABSOLUTE BASOPHIL,[5],36 cells/µL
same,ABSOLUTE EOSINOPHIL,[5],56 cells/µL
same,ABSOLUTE LYMPHOCYTE,[5],7470 cells/µL
same,ABSOLUTE MONOCYTE,[5],180 cells/µL
same,MEAN CORPUSCULAR HEMOGLOBIN,[5],19.97 pg
same,ABSOLUTE BASOPHIL,[6],87.8 cells/µL
same,ABSOLUTE EOSINOPHIL,[6],85.6 cells/µL
same,ABSOLUTE LYMPHOCYTE,[6],8670 cells/µL
same,ABSOLUTE MONOCYTE,[6],180 cells/µL
same,BASOPHIL,[6],0.8%
same,EOSINOPHIL,[6],0.83%
same,ERYTHROCYTE COUNT,[6],9.05 x10E6/uL
same,HEMATOCRIT,[6],52.96%
same,HEMOGLOBIN,[6],17.03 G/DL
same,LEUKOCYTE COUNT,[6],10.42 x10E3/uL
same,LYMPHOCYTE,[6],83.03%
same,MEAN CORPUSCULAR HEMOGLOBIN,[6],18.84 pg
same,MEAN CORPUSCULAR HEMOGLOBIN CONCENTRATION,[6],32.23 G/DL
same,MEAN CORPUSCULAR VOLUME,[6],58.53 fL
same,MONOCYTE,[6],1.62%
same,NEUTROPHIL,[6],13.3%
same,PLATELET COUNT,[6],1272.33 x10E3/uL
same,ALBUMIN,[5],3.38 G/DL
same,CARBON DIOXIDE,[5],22.25 mmol/L
same,CHLORIDE,[5],111.6 MEQ/L
same,ALANINE AMINOTRANSFERASE,[6],30.78 u/L

# Reference: ChEMBL document CHEMBL3885881, “DrugMatrix”
